Measured values taken from ChEMBL document CHEMBL1130612, “Exploration of beta-turn scaffolding motifs as components of sialyl Le(X) mimetics and their relevance to P-selectin” (Bioorg Med Chem Lett, 1998).

Target: T1, E-selectin (Homo sapiens, UniProt P16581)
T1 sequence (P16581 whole entry): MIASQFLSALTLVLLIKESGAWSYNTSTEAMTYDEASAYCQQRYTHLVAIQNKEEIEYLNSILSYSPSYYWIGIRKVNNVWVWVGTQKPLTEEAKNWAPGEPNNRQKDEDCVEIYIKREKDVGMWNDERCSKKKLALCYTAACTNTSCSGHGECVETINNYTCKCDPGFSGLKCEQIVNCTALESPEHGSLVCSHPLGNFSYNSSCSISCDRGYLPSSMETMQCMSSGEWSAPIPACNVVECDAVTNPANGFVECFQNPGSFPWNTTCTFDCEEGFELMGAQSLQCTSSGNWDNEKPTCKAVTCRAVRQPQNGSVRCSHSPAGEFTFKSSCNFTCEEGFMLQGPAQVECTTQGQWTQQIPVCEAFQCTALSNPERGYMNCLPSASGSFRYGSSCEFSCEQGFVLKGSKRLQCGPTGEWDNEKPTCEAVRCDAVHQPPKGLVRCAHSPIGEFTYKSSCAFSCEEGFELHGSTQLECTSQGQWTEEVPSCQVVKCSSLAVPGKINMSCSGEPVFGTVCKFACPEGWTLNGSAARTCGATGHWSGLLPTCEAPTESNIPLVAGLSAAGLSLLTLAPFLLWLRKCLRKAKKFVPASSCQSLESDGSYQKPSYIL
Assay: Compound was evaluated for the Selectin E binding activity.

In the case of CC(=O)N[C@H]1[C@H]([C@H](O)[C@H](O)CO)O[C@@](O[C@H]2[C@@H](O)[C@@H](CO)O[C@@H](O[C@@H]([C@H](O[C@@H]3O[C@@H](C)[C@@H](O)[C@@H](O)[C@@H]3O)[C@H](C=O)NC(C)=O)[C@H](O)CO)[C@@H]2O)(C(=O)O)C[C@@H]1O [SIALYL LEWIS X], the IC50 is reported as greater than 10 µM.
